According to ChEMBL document CHEMBL1152123, “11-Substituted 2,3-dimethoxy-8,9-methylenedioxybenzo[i]phenanthridine derivatives as novel topoisomerase I-targeting agents” (Bioorg Med Chem, 2008):

What was measured:
Type in all cases: functional, cell-based
[1] = Cytotoxicity against camptothecin-resistant human CPT-K5 cells by MTT method
[2] = Cytotoxicity against human KBV1 cells by MTT method; settings: KB-V1
[3] = Cytotoxicity against human RPMI8402 cells by MTT method; settings: RPMI 8402
[4] = Cytotoxicity against human KB3-1 cells by MTT method; settings: KB 3-1
P388 [5] = assay: Cytotoxicity against mouse P388 cells by MTT method
[6] = Cytotoxicity against human KBH5.0 cells by MTT method; settings: KBH5.0 cell
P388 [7] = assay: cells; settings: Mus musculus

Row | Compound | IC50 [1] | IC50 [2] | IC50 [3] | IC50 [4] | IC50 (P388 [5]) | IC50 [6] | IC50 (P388 [7])
1 | COc1cc2cc(CCCN(C)C)c3c4cc5c(cc4ncc3c2cc1OC)OCO5 | 290 nM | 400 nM | 60 nM | 35 nM | 40 nM | 130 nM | 200 nM
2 | COc1cc2cc(C(N)=O)c3c4cc5c(cc4ncc3c2cc1OC)OCO5 | > 10000 nM | 400 nM | 140 nM | 55 nM | 35 nM | 2700 nM | > 10000 nM
3 | COc1cc2cc(CN)c3c4cc5c(cc4ncc3c2cc1OC)OCO5 | 2100 nM | 160 nM | 120 nM | 30 nM | 26 nM | 210 nM | 300 nM
4 | COc1cc2cc(CN(C)C)c3c4cc5c(cc4ncc3c2cc1OC)OCO5 | 2700 nM | 250 nM | 100 nM | 60 nM | 100 nM | 290 nM | 2000 nM
5 | COc1cc2cc(CC[N+](=O)[O-])c3c4cc5c(cc4ncc3c2cc1OC)OCO5 | > 10000 nM | 360 nM | 60 nM | 150 nM | 70 nM | 320 nM | > 10000 nM
6 | COc1cc2cc(CCN)c3c4cc5c(cc4ncc3c2cc1OC)OCO5 | 200 nM | 500 nM | 32 nM | 20 nM | 14 nM | 110 nM | 180 nM
7 | CNC(=O)c1cc2cc(OC)c(OC)cc2c2cnc3cc4c(cc3c12)OCO4 | > 10000 nM | 420 nM | 280 nM | 230 nM |  | 480 nM | > 10000 nM
8 | COc1cc2cc(C(=O)NCCN(C)C)c3c4cc5c(cc4ncc3c2cc1OC)OCO5 | 630 nM | 1400 nM | 35 nM | 27 nM | 15 nM | 200 nM | 260 nM
9 | COc1cc2cc(CO)c3c4cc5c(cc4ncc3c2cc1OC)OCO5 | > 10000 nM | 400 nM | 120 nM | 150 nM | 60 nM | 400 nM | > 10000 nM
10 | COc1cc2cc(C=O)c3c4cc5c(cc4ncc3c2cc1OC)OCO5 | > 10000 nM | 300 nM | 100 nM | 130 nM | 120 nM | 290 nM | 10000 nM
11 | COc1cc2cc(/C=C/[N+](=O)[O-])c3c4cc5c(cc4ncc3c2cc1OC)OCO5 | > 10000 nM | 450 nM | 550 nM | 180 nM | 180 nM | 420 nM | 10000 nM
12 | COc1cc2cc(CCN(C)C)c3c4cc5c(cc4ncc3c2cc1OC)OCO5 | 330 nM | 60 nM | 20 nM | 21 nM | 15 nM | 40 nM | 180 nM
13 | COc1cc2cc(/C=C/CN(C)C)c3c4cc5c(cc4ncc3c2cc1OC)OCO5 | 350 nM | 330 nM | 35 nM | 30 nM | 40 nM | 70 nM | 350 nM
14 | COc1cc2cc(C(=O)N(C)C)c3c4cc5c(cc4ncc3c2cc1OC)OCO5 | > 10000 nM | 4000 nM | 1600 nM | 1200 nM | 980 nM | 3600 nM | > 10000 nM
15 | CCOC(=O)c1cc2cc(OC)c(OC)cc2c2cnc3cc4c(cc3c12)OCO4 | > 10000 nM | > 10000 nM | 10000 nM | > 10000 nM | 4000 nM | > 10000 nM | > 10000 nM
16 | COc1cc2c(=O)n(CCN(C)C)c3c4cc5c(cc4ncc3c2cc1OC)OCO5 |  | 5 nM |  | 5 nM |  |  | 230 nM
17 | CC[C@@]1(O)C(=O)OCc2c1cc1n(c2=O)Cc2cc3ccccc3nc2-1 [CAMPTOTHECIN] |  |  | 4 nM | 15 nM | 4 nM |  | > 10000 nM
18 | CCc1c2c(nc3ccc(OC(=O)N4CCC(N5CCCCC5)CC4)cc13)-c1cc3c(c(=O)n1C2)COC(=O)[C@]3(O)CC [IRINOTECAN] |  | 40000 nM |  | 680 nM |  | 7400 nM | 
19 | CC[C@@]1(O)C(=O)OCc2c1cc1n(c2=O)Cc2cc3c(CN(C)C)c(O)ccc3nc2-1 [TOPOTECAN] |  | 440 nM | 210 nM | 40 nM |  |  | > 10000 nM
